The values that follow come from patent publication US11046954B2, “Targeted protein degradation to attenuate adoptive T-cell therapy associated adverse inflammatory responses” (Dana-Farber Cancer Institute, Inc., priority 2015, dated 2021).

Entries after “also recorded” stand apart in the source; their conditions may differ.

Holding throughout (assay type): cell-based
The subject of assay [1] is NIH3T3 expressing FKBP* fused to the N-terminus of KRASG12V. As to the kind of experiment: Phase contrast imaging of NIH3T3 cells expressing FKBP*-KRASG12V. The following applies: NIH3T3 expressing dTAG-KRAS; dFKBP13, 24 hours; vs DMSO. Here is the method:
FIG. 23A, FIG. 23B, FIG. 23C, and FIG. 23D are panels of phase contrast images of control NIH3T3 cells or NIH3T3 expressing FKBP* fused to the N-terminus of KRASG12V treated with DMSO or dFKBP13 for 24 hours.

Assay [2] has as its target T1, FKBP* (Homo sapiens, UniProt P62942, F37V).
T1 construct: HA; expressed in transfected cells; host or cells: 293FT cells (CRBN-WT or CRBN-/-)
As to the kind of experiment: Immunoblot of 293FT cells (CRBN-WT) expressing FKBP*, pretreated with Carfilzomib, MLN4924 or Lenalidomide before dFKBP13. The protocol:
293FT cells (CRBN-WT) expressing FKBP* were pretreated with luM Carfilzomib (proteasome inhibitor), 0.5 uM MLN4924 (neddylation inhibitor), and 10 uM Lenalidomide (CRBN binding ligand) for two hours prior to a 4 hour treatment with dFKBP13.
293FT cells (CRBN-WT) were engineered to express FKBP*. Cells were pretreated with luM Carfilzomib (proteasome inhibitor), 0.5 uM MLN4924 (neddylation inhibitor), and 10 uM Lenalidomide (CRBN binding ligand) for two hours prior to a 4 hour treatment with dFKBP13. Lysates were prepared and western immunoblot analysis performed.
In general terms: In western blotting, separated proteins are transferred to a membrane and probed.

In assay [3] the target is T2, FKBP* fused to Nluc (Homo sapiens, UniProt P62942+Q96SW2, F37V).
T2 construct: Nluc (nano luciferase, fusion partner); expressed in transfected cells; host or cells: 293FT cells (wild type or CRBN-/-)
T2 sequence (P62942 2-108 F37V): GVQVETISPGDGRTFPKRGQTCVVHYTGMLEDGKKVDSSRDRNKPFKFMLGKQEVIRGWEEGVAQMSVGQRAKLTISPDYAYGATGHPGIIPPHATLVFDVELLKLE
T2 sequence (Q96SW2 whole entry, the tested form may be a part): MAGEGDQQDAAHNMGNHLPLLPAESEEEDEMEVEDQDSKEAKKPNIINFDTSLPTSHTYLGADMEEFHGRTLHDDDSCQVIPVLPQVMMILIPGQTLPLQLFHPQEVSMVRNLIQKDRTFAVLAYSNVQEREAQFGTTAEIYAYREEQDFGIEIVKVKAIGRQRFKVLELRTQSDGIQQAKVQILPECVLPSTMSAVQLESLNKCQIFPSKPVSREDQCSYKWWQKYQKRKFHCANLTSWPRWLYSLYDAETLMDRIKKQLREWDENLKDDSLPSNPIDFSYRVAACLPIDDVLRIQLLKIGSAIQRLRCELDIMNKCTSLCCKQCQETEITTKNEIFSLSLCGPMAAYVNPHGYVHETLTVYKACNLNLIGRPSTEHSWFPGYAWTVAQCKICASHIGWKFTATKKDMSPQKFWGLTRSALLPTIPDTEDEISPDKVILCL
T2 sequence (Q16531 whole entry partner, the tested form may be a part): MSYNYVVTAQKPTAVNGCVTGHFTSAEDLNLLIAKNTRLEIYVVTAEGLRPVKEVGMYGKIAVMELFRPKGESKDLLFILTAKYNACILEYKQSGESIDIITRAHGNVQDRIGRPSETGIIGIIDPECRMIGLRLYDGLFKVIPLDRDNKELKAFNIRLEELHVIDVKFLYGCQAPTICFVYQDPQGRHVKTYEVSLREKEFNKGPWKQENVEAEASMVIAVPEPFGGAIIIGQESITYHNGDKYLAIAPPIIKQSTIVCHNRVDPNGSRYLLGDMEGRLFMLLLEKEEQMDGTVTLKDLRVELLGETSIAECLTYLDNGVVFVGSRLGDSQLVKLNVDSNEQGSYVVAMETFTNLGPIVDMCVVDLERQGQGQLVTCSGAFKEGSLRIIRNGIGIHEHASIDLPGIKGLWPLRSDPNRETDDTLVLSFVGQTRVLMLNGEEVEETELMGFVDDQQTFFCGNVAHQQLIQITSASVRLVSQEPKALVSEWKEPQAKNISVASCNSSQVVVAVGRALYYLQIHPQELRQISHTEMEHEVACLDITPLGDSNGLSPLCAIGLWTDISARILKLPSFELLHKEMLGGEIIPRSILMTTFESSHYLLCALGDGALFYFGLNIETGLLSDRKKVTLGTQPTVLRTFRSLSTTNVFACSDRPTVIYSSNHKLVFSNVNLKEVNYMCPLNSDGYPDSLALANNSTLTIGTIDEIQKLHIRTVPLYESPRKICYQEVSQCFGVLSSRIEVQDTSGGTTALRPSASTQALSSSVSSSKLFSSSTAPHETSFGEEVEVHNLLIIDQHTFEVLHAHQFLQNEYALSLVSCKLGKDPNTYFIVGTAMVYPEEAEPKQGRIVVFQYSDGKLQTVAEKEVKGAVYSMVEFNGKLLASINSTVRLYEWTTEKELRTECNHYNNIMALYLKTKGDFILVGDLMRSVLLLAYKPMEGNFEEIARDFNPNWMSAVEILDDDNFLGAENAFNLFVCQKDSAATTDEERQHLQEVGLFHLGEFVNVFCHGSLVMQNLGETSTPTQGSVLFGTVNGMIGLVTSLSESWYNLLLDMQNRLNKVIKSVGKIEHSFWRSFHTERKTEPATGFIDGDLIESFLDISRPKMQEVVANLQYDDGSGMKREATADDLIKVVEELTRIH
As to the kind of experiment: Nluc/Fluc luciferase signal ratio assay of FKBP* degradation in 293FT cells. The settings on record: wild type or CRBN −/− 293FT; indicated concentrations, 4 hours. Here is the method:
FIG. 7A and FIG. 7B are graphs measuring the activity of a panel of dFKBP heterobifunctional compounds in cells expressing FKBP* fused to Nluc. Degradation of FKBP* is measured as a signal ratio (Nluc/Fluc) between NANOluc and firefly luciferase from the same multicistronic transcript in wild type (FIG. 7A) or CRBN −/− (FIG. 7B) 293FT cells treated with indicated concentrations of dFKBPs for 4 hours. A decrease in the signal ratio indicates FKBP* (Nluc) degradation.
In an effort to identify potent and selective dFKPB heterobifunctional compounds, high throughput measurements of targeted FKBP* degradation were measured by surrogate levels of luciferase. Here, FKBP* is exogenously expressed as a multicistronic transcript with two types of luciferase: nano luciferase (NLuc) and firefly luciferase (FLuc) that allow for cell normalized quantification of FKBP* protein levels. Degradation of FKBP* is measured as a signal ration (Nluc/Fluc) in wild type (FIG. 7A) or CRBN −/−(FIG. 7B) 293FT cells treated with indicated concentrations of dFKBPs for 4 hours.

T1 sequence (P62942 whole entry F37V): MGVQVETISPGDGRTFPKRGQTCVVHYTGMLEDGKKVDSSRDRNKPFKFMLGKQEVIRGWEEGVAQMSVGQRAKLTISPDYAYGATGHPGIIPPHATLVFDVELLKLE

`CC[C@H](C(=O)N1CCCC[C@H]1C(=O)O[C@H](CCc1ccc(OC)c(OC)c1)c1cccc(OCC(=O)NCCCCCCOc2cccc3c2C(=O)N(C2CCC(=O)NC2=O)C3=O)c1)c1cc(OC)c(OC)c(OC)c1` (some centres unmarked) [dFKBP13]: in assay [1], the “morphological change of cells” value is recorded as “cells morphologically revert back to the wild type (DMSO control) state; also recorded: morphological change induced”. In addition, the “degradation of HA-tagged FKBP* by dFKBP13 after MLN4924 pretreatment” value in assay [2] (0.5 uM MLN4924 (neddylation inhibitor) two hours prior to 4 hour dFKBP13) was “rescued HA-tagged FKBP*”. The “degradation of HA-tagged FKBP* by dFKBP13 after Carfilzomib pretreatment” value in assay [2] (1 uM Carfilzomib (proteasome inhibitor) two hours prior to 4 hour dFKBP13) was “rescued by the proteasome inhibitor Carfilzomib”. In assay [2] (10 uM Lenalidomide (CRBN binding ligand) two hours prior to 4 hour dFKBP13), the “degradation of FKBP* by dFKBP13 after Lenalidomide pretreatment” value is listed as “abolished dFKBP13-dependent FKBP* degradation”.

Consider `CC[C@H](C(=O)N1CCCC[C@H]1C(=O)O[C@H](CCc1ccc(OC)c(OC)c1)c1cccc(OCC(=O)NCCCOCCOCCOCCCNC(=O)COc2cccc3c2C(=O)N(C2CCC(=O)NC2=O)C3=O)c1)c1cc(OC)c(OC)c(OC)c1` (some centres unmarked) [dFKBP7], for which the “FKBP* (Nluc) degradation, signal ratio (Nluc/Fluc)” value in assay [3] is given as “effectively degrade FKBP* in a cereblon dependent manner”.
